The values below come from US20250241985A1, “NANOLIPOSOME COMPOSITIONS AND METHODS OF TREATING STROKE” (United States Government As Represented By The Department …, priority 2020, published 2025).

Experiment [1] deals with stroke injury, preclinical models. Conditions: 150 mg/kg of free monosialoganglioside in saline; cited from earlier work.
In experiment [2] the test system is human brain microvascular endothelial cells (HBMVECs). Kind of experiment: Viability of human brain microvascular endothelial cells under physoxia/hypoxia, with or without medin (calcein-AM, flow cytometry). The following applies: medin 5 μM, 20 hours; for cell viability under hypoxic condition: hypoxia (1% oxygen). The experiment is classed as cell-based. On the procedure: (§1) Methods. Recombinant medin was expressed in Lemo 21 (DE3) cells using POPINS-medin (Karamanova N, et al. J Am Heart Assoc 2020; 9:e014810) and confirmed to have >95% purity by SDS-PAGE. GM1L was prepared from phosphatidylcholine, cholesterol and monosialoganglioside (molar ratios 70:25:5) using lipid hydration method (Karamanova N, et al. J Am Heart Assoc 2020; 9:e014810). Primary human brain microvascular ECs (Lonza, passages 4-8) were exposed for 20 hours to 4 different treatments (vehicle control, medin 5 μM, medin 5 μM+GM1L 300 μg/ml or GM1L 300 μg/ml) under two aerobic conditions: physoxia (5% oxygen) or hypoxia (1% oxygen). Cell viability was assessed using calcein-AM fluorescence (based on principle of intact esterases in viable cells that releases fluorescent calcein) using flow cytometry (measurements expressed relative to control ECs exposed to room air). Gene expression of antioxidant enzymes heme-oxygenase 1 (HO1), NADPH quinone dehydrogenase (NQO1) and superoxide dismutase 1 (SOD1) were measured separately by qPCR on ECs.
Cell viability was assessed using calcein-AM fluorescence using flow cytometry. Measurements are expressed relative to control HBMVECs exposed to room air.

In a further experiment the test system is HO-1, NQO1 and SOD1. Kind of experiment: Gene (qPCR) and protein expression of antioxidant enzymes in endothelial cells. Format: cell-based, human. The following applies: medin 5 μM, 20 hours. On the procedure: as §1
Nrf2 is a transcription factor that is a master regulator of production of antioxidant enzymes and protective mechanisms against hypoxic/ischemic stress and inflammatory stress.
On the technique in general: In qPCR the cycle at which signal appears reflects the starting amount.

Regarding monosialoganglioside, the “reduction in infarct volume, prior study” value in experiment [1] was 6.8%.
As for “medin: 50-amino acid amyloidogenic peptide; recombinant, expressed in Lemo 21 (DE3) cells (RLDKQGNFNAWVAGSYGNDQWLQVDLGSSKEVTGIITQGARNFGSVQFVA; Medin; UniProt Q08431 268-317, looked up)”, the “cell viability under hypoxic condition” value in experiment [2] is recorded as “more so”; in experiment [2] (listed as Medin), “significant additive adverse effect”. The “cell viability under physoxic condition” value in experiment [2] (physoxia (5% oxygen)) is recorded as “reduced viability”. For the same substance, the “antioxidant enzyme gene expression versus control” value in the experiment on HO-1, NQO1 and SOD1 is given as “did not elicit a change”.
